Measured values reported in patent US6362212B1, “Oxime derivative and bactericide containing the same as active ingredient” (Shionogi & Company, Ltd., priority 1994, dated 2002).

How the values were obtained:
[1] = system: Sphaerotheca fuliginea; assay: Controlling effect on Sphaerotheca fuliginea by foliage application (pot experiment); type: in vivo; settings: Podosphaera fuliginea, in Cucumis sativus, foliar, 240 h, foliage spray on cucumber (cv. TSUKUBASHIROIBO) first leaves, infected area after 10 days in greenhouse at 20° C., read-out: Controlling effect on Sphaerotheca fuliginea by foliage application at 500 ppm (percent control)
Procedure, shortened: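 First leaves of cucumber seedlings, 2-3 weeks old, were sprayed with compound (DMF solution diluted in water with spreader). They were inoculated 24 h later with a Sphaerotheca fuliginea conidia spray and kept 10 days at 20° C in a greenhouse. Percent control was calculated from infected leaf area.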

[2] = system: Erysiphe graminis f. sp. tritici; assay: Controlling effect on Erysiphe graminis f. sp. tritici by foliage application (pot experiment); type: in vivo; settings: Blumeria graminis, foliar, 240 h, foliage spray on wheat (cv. NORIN No. 61) seedlings, infected area after 10 days in greenhouse at 20° C., read-out: Controlling effect on ErYsiphe graminis f. sp. tritici by foliage application at 500 ppm (percent control)
Procedure, shortened: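 Wheat seedlings (cv. NORIN No. 61, 2-3 weeks old) sprayed with compound in DMF diluted in water with spreader, then inoculated with conidia 24 hours later. Kept in greenhouse at 20 °C for 10 days; percent control calculated from infected leaf area.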

[3] = system: Pyricularia oryzae; type: in vivo; settings: foliage spray on rice seedlings (cv. […]), number of lesions six days after the inoculation
[4] = system: Puccinia coronata; assay: Controlling effect on Puccinia coronata by foliage application (pot experiment); type: in vivo; settings: foliage spray on oat (cv. PC-38) seedlings, infected area after 1 day moist chamber and 8 days greenhouse at 20° C.
Procedure, shortened: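 Oat seedlings (cv. PC-38, 2–3 weeks old) were sprayed with compound in DMF diluted with spreader-containing water, then inoculated 24 h later with P. coronata spores diluted in talc. Plants were held 1 day in a moist chamber at 20° C, then 8 days in a greenhouse at 20° C; percent control came from infected leaf area.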

[5] = system: Botrytis cinerea; assay: Controlling effect on Botrytis cinerea by foliage application (pot experiment); type: in vivo; settings: foliage spray on cucumber (cv. TSUKUBASHIROIBO) first leaves, mycelial disks, lesion diameter after 3 days in moist chamber at 20° C.
Method: The following Test Examples illustrate the effects of the fungicide of the present invention. (I. Controlling effects on various plant diseases by foliage application (pot experiment)) A test compound was dissolved in a small amount of N,N-dimethylformamide, and the solution was diluted to a given concentration with distilled water containing a spreader. Thus, a liquid sample to be tested was prepared. The liquid sample was sprayed to test plants, and 24 hours thereafter, pathogens were inoculated by the method described below. […] The seeds of cucumber ([…]) were sown in plastic cups (each 9 cm in diameter), followed by cultivation for 2 to 3 weeks. The test compound in the form of a solution or suspension was sprayed to the surface of their first leaves, and mycelial disks (4 mm φ) of Botrytis cinerea cultured on the potato sucrose agar medium were put on the leaf surfaces to inoculate. the cucumber seedlings with the pathogen. The plants were kept in a moist chamber at 20° C. for 3 days. The diameter of the lesions on the leaves was measured and the percent control was calculated.

SMILES	pest or weed control at 500 ppm [1]	pest or weed control at 500 ppm [2]	Controlling effect on PYricularia orYzae by foliage application at 500 ppm (percent control) [3]	Controllng effect on Puccinia coronata by foliage application at 500 ppm (percent control) [4]	melting point	Controlling effect on Botrytis cinerea by foliage application at 500 ppm (percent control) [5]
CON=C(c1ncno1)c1ccccc1COc1ccc(Cl)cc1 [Compound No. 1584, 2-(4-chlorophenoxymethyl)phenyl 1,2,4-oxadiazol-5-yl ketone O-methyloxime]	100%	100%	70 percent control	70 percent control	96 to 97.5 °C	–
CON=C(c1ccccc1COc1cccc(Cl)c1)n1ccnc1 [Compound No. 6, 1-[2-(3-chlorophenoxymethyl)-α-methoxyiminobenzyl]imidazole]	–	100%	90 percent control	100 percent control	96.5 to 97.5 °C	100 percent control
CON=C(c1ccon1)c1ccccc1COc1cc(C)ccc1C (single isomer, unassigned) [Compound No. 336, 2-(2,5-dimethylphenoxymethyl)phenyl isoxazol-3-yl ketone O-methyloxime]	100%	97%	90 percent control	100 percent control	104 to 108 °C	–
